Results published in patent US9493436B2, “Tyrosine phosphatase inhibitors and uses thereof to modulate the activity of enzymes involved in the pathology of Mycobacterium tuberculosis” (priority 2011, dated 2016).
Read-outs that look alike come from different tables or passages of the source.

What was measured:
[1] = target: Meg2 (Homo sapiens, UniProt P43378); details: read-out: IC50 (μM) Meg2
[2] = Oral and intravenous pharmacokinetics in mice; type: in vivo
Description: Oral and intravenous (IV) pharmacokinetics were determined for compounds L01-Z06, L01-Z08 and L01-Z09 in mice. Drugs were administered by a single IV injection (5 mg/kg) or oral gavage (25 mg/kg) in 20% hydroxypropyl-b-cyclodextrin/2% diethanolamine and blood samples were collected at 0.5, 1, 3, 6, 9 and 24 hours later. All three compounds were readily administered by both IV and oral routes. […] Drug levels peaked at […] after IV injection, or […] after oral gavage. Based on these parameters, all three compounds are classified as highly permeable with moderate-slow clearance rates.

[3] = target: Laforin (Homo sapiens, UniProt O95278); type: biochemical
Laforin, sequence (O95278 whole entry, species assumed): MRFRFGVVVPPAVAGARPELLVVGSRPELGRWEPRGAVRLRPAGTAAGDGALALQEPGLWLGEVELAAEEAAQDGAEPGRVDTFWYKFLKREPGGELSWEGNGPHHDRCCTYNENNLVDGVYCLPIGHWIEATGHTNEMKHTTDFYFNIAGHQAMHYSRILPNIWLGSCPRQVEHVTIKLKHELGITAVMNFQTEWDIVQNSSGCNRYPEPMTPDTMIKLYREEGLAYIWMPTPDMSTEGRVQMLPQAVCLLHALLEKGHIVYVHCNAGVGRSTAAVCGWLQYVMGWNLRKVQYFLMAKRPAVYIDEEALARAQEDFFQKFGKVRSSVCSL

[4] = target: SHP1 (Homo sapiens, UniProt P29350); type: biochemical
SHP1, sequence (P29350 whole entry): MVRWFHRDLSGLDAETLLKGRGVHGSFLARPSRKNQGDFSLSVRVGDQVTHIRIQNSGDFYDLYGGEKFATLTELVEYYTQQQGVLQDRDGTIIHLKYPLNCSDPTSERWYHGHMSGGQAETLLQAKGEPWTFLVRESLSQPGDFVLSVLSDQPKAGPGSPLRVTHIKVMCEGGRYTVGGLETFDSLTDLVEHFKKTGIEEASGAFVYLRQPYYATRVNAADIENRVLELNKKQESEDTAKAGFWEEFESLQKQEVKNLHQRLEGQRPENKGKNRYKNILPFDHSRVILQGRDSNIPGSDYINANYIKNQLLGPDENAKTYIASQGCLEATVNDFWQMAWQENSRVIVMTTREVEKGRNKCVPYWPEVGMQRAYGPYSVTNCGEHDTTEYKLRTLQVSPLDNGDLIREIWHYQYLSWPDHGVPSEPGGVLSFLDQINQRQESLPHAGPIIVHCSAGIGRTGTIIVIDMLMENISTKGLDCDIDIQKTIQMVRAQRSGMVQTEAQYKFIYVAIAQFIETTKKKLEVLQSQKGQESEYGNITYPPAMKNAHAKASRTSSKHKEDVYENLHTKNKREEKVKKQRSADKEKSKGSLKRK

[5] = target: VHR (Homo sapiens, UniProt P51452); details: read-out: IC50 (μM) VHR
VHR, sequence (P51452 whole entry, species assumed): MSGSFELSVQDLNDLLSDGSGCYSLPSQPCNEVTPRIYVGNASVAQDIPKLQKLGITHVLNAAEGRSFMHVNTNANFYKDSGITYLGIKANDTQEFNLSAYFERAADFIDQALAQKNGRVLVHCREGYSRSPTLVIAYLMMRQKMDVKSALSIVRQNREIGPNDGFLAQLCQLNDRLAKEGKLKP

[6] = target: T1, TC-PTP (Homo sapiens, UniProt P17706); assay: PTP selectivity panel: TC-PTP; type: biochemical; details: read-out: IC50 (μM) TC-PTP
T1 sequence (P17706 1-415): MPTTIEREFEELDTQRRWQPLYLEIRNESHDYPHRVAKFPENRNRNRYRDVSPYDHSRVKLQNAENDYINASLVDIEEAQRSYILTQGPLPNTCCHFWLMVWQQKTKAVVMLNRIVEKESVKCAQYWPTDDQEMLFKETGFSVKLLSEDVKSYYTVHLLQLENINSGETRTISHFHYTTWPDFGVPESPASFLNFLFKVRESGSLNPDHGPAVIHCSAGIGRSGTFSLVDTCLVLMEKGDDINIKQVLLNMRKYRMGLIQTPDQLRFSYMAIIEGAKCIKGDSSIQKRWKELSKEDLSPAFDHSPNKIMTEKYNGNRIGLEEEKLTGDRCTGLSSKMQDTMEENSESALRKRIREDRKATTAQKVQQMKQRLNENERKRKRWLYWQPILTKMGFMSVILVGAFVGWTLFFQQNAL

[7] = target: mPTPA (Mycobacterium tuberculosis, UniProt P9WIA1); assay: PTP selectivity panel: mPTPA; type: biochemical
mPTPA, sequence (P9WIA1 whole entry): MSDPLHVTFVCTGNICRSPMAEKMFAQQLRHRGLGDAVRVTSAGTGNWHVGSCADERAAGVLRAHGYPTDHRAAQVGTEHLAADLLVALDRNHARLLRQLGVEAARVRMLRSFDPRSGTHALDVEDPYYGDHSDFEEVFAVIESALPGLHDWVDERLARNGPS

[8] = target: YopH (UniProt P15273); type: biochemical; details: read-out: IC50 (μM) YopH
YopH, sequence (P15273 whole entry, looked up): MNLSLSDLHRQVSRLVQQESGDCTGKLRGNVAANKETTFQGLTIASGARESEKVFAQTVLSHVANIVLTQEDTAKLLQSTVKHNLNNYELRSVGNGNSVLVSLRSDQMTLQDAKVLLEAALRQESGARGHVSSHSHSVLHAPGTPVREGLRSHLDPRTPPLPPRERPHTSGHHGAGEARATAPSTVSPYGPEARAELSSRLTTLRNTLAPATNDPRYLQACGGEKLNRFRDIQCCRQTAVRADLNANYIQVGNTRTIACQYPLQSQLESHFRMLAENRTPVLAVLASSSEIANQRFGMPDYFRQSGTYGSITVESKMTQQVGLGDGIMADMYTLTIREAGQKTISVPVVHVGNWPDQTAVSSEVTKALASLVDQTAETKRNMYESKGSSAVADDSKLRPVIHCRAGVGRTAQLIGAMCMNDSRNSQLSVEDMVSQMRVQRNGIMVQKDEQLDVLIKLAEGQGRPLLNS

[9] = target: T2, HePTP (Homo sapiens, UniProt P35236); assay: biochemical; type: biochemical
T2 sequence (P35236 1-360): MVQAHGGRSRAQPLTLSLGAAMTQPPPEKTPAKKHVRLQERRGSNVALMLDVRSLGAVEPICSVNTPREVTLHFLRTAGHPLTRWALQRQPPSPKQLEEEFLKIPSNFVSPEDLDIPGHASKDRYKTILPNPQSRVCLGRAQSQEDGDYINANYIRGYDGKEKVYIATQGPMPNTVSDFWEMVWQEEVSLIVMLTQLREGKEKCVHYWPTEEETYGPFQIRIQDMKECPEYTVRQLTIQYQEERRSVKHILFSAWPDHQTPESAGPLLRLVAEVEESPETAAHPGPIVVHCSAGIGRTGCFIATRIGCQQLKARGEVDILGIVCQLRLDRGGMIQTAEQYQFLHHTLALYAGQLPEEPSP

[10] = target: T3, Lyp (Homo sapiens, UniProt Q9Y2R2); assay: biochemical; type: biochemical
T3 sequence (Q9Y2R2 1-807): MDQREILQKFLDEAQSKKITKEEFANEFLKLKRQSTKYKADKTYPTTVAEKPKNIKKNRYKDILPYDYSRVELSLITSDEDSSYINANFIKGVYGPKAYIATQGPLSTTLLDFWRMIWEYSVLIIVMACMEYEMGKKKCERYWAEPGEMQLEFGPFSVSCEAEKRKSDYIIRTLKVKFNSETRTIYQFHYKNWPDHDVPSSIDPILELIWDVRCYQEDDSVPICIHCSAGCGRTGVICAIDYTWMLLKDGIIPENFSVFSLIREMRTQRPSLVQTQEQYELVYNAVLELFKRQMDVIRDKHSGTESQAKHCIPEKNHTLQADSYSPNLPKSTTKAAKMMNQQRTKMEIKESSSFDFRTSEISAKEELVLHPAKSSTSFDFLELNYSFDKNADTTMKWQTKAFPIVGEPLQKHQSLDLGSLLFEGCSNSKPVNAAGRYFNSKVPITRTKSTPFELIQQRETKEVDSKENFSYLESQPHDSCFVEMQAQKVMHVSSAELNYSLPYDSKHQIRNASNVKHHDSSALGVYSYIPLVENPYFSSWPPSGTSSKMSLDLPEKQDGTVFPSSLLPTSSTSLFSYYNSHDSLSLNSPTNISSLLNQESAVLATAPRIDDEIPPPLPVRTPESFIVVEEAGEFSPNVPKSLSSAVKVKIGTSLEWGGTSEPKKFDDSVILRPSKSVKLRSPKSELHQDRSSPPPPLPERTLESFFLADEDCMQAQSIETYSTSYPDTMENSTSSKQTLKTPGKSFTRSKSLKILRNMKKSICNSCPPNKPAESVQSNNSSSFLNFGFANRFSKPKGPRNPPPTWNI

Meg2, sequence (P43378 whole entry): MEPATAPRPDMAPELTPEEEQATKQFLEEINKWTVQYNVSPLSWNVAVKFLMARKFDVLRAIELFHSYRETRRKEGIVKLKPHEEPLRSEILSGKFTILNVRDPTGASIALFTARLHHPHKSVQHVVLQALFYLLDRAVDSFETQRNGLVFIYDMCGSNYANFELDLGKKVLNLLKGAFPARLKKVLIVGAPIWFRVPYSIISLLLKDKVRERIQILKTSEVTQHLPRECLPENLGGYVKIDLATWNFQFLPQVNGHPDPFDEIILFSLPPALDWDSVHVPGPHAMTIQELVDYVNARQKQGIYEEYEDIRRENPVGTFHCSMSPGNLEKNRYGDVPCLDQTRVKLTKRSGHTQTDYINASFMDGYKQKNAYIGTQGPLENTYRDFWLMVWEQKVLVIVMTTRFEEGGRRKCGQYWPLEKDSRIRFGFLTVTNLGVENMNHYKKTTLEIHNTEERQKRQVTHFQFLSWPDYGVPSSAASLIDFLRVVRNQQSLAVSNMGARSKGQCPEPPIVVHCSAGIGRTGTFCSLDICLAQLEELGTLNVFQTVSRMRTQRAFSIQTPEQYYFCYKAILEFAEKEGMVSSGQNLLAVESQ

Structure (SMILES): O=C(O)c1cc2c(C#Cc3cccc(C(F)(F)F)c3)c(-c3ccccc3)oc2cc1O [32 (L01Z08)]
- IC50 [1]: 4.3 ± 0.5 µM
- clearance ranking among the three compounds ([2]; mice): slowest clearance of the three
- Clearance % LPF ([2]; mice, IV 5 mg/kg): 28.9 % LPF
- Clearance % LPF ([2]; mice, PO 25 mg/kg): 38.2 % LPF
- Vdss ([2]; mice, PO 25 mg/kg): 6.58 L/kg
- clearance ([2]; mice, PO 25 mg/kg): 1236.1 mL/h/kg
- time active levels (sufficient to inhibit target activity by 80% in cells) maintained ([2]; mice, after oral delivery): 18.5 h
- Tmax ([2]; mouse, blood, iv, 5 mg/kg, mice, IV 5 mg/kg): 30 min
- half-life ([2]; mouse, blood, mice, IV 5 mg/kg): 246 min
- clearance ([2]; mouse, blood, mice, IV 5 mg/kg, data normalized to 25 mg/kg dose, read-out: Clearance (converted)): 935 mL/h/kg
- Cmax ([2]; mouse, blood, mice, IV 5 mg/kg, data normalized to 25 mg/kg dose, read-out: Cmax (ng/mL)): 10200 ng/mL
- Cmax ([2]; mouse, blood, mice, IV 5 mg/kg, data normalized to 25 mg/kg dose, read-out: Cmax nM): 25500 nM
- Vd ([2]; mouse, blood, mice, IV 5 mg/kg, read-out: Vdss): 5.53 L/kg
- half-life ([2]; mouse, blood, mice, PO 25 mg/kg): 222 min
- bioavailability ([2]; mouse, blood, mice, PO 25 mg/kg vs IV 5 mg/kg, read-out: Absolute Bioavailability (oral)): 75.6%
- Cmax ([2]; mouse, blood, mice, PO 25 mg/kg, read-out: Cmax (ng/mL)): 2880 ng/mL
- Cmax ([2]; mouse, blood, mice, PO 25 mg/kg, read-out: Cmax nM): 7210 nM
- oral pK values over the 24 hour duration of the assay ([2]; oral, 24 hours): remain relatively constant
- IC50 [3]: 40 ± 10 µM
- IC50 [4]: 2.3 ± 0.3 µM
- IC50 [5]: 1.9 ± 0.4 µM
- IC50 [6]: 5.7 ± 0.4 µM

Structure (SMILES): Cn1c(-c2ccccc2C(F)(F)F)c(I)c2cc(C(=O)O)c(O)cc21 [Compound 207a, 6-hydroxy-3-iodo-1-methyl-2-(2-(trifluoromethyl)phenyl)-1H-indole-5-carboxylic acid]
- IC50 [7]: 82 ± 1 µM
- IC50 [8]: 220 ± 20 µM
- IC50 [9]: 86 ± 6 µM
- IC50 [10]: 75 ± 4 µM
